Target: T1, menin-MLL interaction (Menin MLL 4-43) (Homo sapiens, UniProt O00255)
T1 sequence (O00255 1-610): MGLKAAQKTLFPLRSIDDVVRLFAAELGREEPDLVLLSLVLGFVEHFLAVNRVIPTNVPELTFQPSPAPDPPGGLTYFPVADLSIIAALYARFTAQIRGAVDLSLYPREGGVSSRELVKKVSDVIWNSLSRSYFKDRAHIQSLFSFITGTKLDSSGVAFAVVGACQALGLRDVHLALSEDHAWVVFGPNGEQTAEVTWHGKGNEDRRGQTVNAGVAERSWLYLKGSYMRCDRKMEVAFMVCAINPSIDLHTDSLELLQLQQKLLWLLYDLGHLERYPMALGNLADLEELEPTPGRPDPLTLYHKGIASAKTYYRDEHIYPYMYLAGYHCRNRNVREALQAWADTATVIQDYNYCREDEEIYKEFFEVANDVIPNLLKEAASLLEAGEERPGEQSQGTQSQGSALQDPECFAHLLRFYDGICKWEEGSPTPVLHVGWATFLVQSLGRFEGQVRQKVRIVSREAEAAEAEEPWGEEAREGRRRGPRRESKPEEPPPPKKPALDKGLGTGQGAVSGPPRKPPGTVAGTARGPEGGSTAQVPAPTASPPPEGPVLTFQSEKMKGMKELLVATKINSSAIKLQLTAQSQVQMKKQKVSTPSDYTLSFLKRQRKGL
Test: Fluorescence polarization (FP) competition assay
Assay type: binding
Conditions: fluorescence polarization assay; read-out: Menin MLL 4-43 IC50

Structure (SMILES) | IC50 [µM]
Cc1c(CN2CCC(Nc3ncnc4sc(CC(F)(F)F)cc34)CC2)ccc2c1cc(C#N)n2CC12CC(NC(=O)CN)(C1)C2 (single isomer, unassigned) [Compound 61] | 0.25 to 1
C=CC(=O)NC12CC(Cn3c(C#N)cc4c(C)c(CN5CCC(Nc6ncnc7sc(CC(F)(F)F)cc67)CC5)ccc43)(C1)C2 [Compound 1] | 0.05 to 0.25
CC(=O)NC12CC(Cn3c(C#N)cc4c(C)c(CN5CCC(Nc6ncnc7sc(CC(F)(F)F)cc67)CC5)ccc43)(C1)C2 [Compound 2] | 0.05 to 0.25
Cc1c(CN2CCC(Nc3ncnc4sc(CC(F)(F)F)cc34)CC2)ccc2c1cc(C#N)n2CC12CC(N(C)C)(C1)C2 [Compound 5] | 0.25 to 1
Cc1c(CN2CCC(Nc3ncnc4sc(CC(F)(F)F)cc34)CC2)ccc2c1cc(C#N)n2CC12CC(NC(=O)C(F)(F)F)(C1)C2 [Compound 6] | 0.25 to 1
CNC(=O)NC12CC(Cn3c(C#N)cc4c(C)c(CN5CCC(Nc6ncnc7sc(CC(F)(F)F)cc67)CC5)ccc43)(C1)C2 [Compound 7] | < 0.05
Cc1c(CN2CCC(Nc3ncnc4sc(CC(F)(F)F)cc34)CC2)ccc2c1cc(C#N)n2CC12CC(NC(=O)C(C)C)(C1)C2 [Compound 8] | 0.05 to 0.25
Cc1c(CN2CCC(Nc3ncnc4sc(CC(F)(F)F)cc34)CC2)ccc2c1cc(C#N)n2CC12CC(NC(=O)C3CC3)(C1)C2 [Compound 9] | 0.05 to 0.25
CNC12CC(Cn3c(C#N)cc4c(C)c(CN5CCC(Nc6ncnc7sc(CC(F)(F)F)cc67)CC5)ccc43)(C1)C2 [Compound 10] | 0.05 to 0.25
Cc1c(CN2CCC(Nc3ncnc4sc(CC(F)(F)F)cc34)CC2)ccc2c1cc(C#N)n2CCC12CC(N)(C1)C2 [Compound 11] | 0.25 to 1
CCC(=O)NC12CC(CCn3c(C#N)cc4c(C)c(CN5CCC(Nc6ncnc7sc(CC(F)(F)F)cc67)CC5)ccc43)(C1)C2 [Compound 12] | > 1
Cc1c(CN2CCC(Nc3ncnc4sc(CC(F)(F)F)cc34)CC2)ccc2c1cc(C#N)n2CC12CC(N)(C1)C2 [Compound 13] | 0.05 to 0.25
C=CC(=O)NC12CC(CCn3c(C#N)cc4c(C)c(CN5CCC(Nc6ncnc7sc(CC(F)(F)F)cc67)CC5)ccc43)(C1)C2 [Compound 14] | 0.25 to 1
Cc1c(CN2CCC(Nc3ncnc4sc(CC(F)(F)F)cc34)CC2)ccc2c1cc(C#N)n2CC12CC(NC=O)(C1)C2 [Compound 15] | < 0.05
Cc1c(CN2CCC(Nc3ncnc4sc(CC(F)(F)F)cc34)CC2)ccc2c1cc(C#N)n2CC12CC(NC(=O)CO)(C1)C2 [Compound 16] | 0.05 to 0.25
Cc1c(CN2CCC(Nc3ncnc4sc(CC(F)(F)F)cc34)CC2)ccc2c1cc(C#N)n2CC12CC(NC(=O)CN)(C1)C2 [Compound 17] | < 0.05
CNC(=O)C12CC(Cn3c(C#N)cc4c(C)c(CN5CCC(Nc6ncnc7sc(CC(F)(F)F)cc67)CC5)ccc43)(C1)C2 [Compound 18] | 0.05 to 0.25
Cc1c(CN2CCC(Nc3ncnc4sc(CC(F)(F)F)cc34)CC2)ccc2c1cc(C#N)n2CC12CC(C(=O)O)(C1)C2 [Compound 20] | > 1
C=CC(=O)N[C@H]1C[C@@H](Cn2c(C#N)cc3c(C)c(CN4CCC(Nc5ncnc6sc(CC(F)(F)F)cc56)CC4)ccc32)C1 [Compound 29] | 0.05 to 0.25
C=CC(=O)N[C@H]1C[C@H](Cn2c(C#N)cc3c(C)c(CN4CCC(Nc5ncnc6sc(CC(F)(F)F)cc56)CC4)ccc32)C1 [Compound 30] | 0.05 to 0.25
CC(=O)N[C@H]1C[C@@H](Cn2c(C#N)cc3c(C)c(CN4CCC(Nc5ncnc6sc(CC(F)(F)F)cc56)CC4)ccc32)C1 [Compound 31] | 0.25 to 1
CC(=O)N[C@H]1C[C@H](Cn2c(C#N)cc3c(C)c(CN4CCC(Nc5ncnc6sc(CC(F)(F)F)cc56)CC4)ccc32)C1 [Compound 32] | 0.05 to 0.25
Cc1c(CN2CCC(Nc3ncnc4sc(CC(F)(F)F)cc34)CC2)ccc2c1cc(C#N)n2CC12CC(NC(=O)CNC=O)(C1)C2 [Compound 33] | 0.25 to 1
Cc1c(CN2CCC(Nc3ncnc4sc(CC(F)(F)F)cc34)CC2)ccc2c1cc(C#N)n2CC12CC(NC(=O)c3ccc[nH]3)(C1)C2 [Compound 34] | 0.05 to 0.25
Cc1c(CN2CCC(Nc3ncnc4sc(CC(F)(F)F)cc34)CC2)ccc2c1cc(C#N)n2CC12CC(NC(=O)c3cccc(=O)[nH]3)(C1)C2 [Compound 35] | < 0.05
Cc1c(CN2CCC(Nc3ncnc4sc(CC(F)(F)F)cc34)CC2)ccc2c1cc(C#N)n2CC12CC(NC(=O)CNS(C)(=O)=O)(C1)C2 [Compound 36] | 0.05 to 0.25
Cc1c(CN2CCC(Nc3ncnc4sc(CC(F)(F)F)cc34)CC2)ccc2c1cc(C#N)n2CC12CC(C(=O)NCCN)(C1)C2 [Compound 37] | < 0.05

Structure (SMILES) | IC50 [µM]
Cc1c(CN2CCC(Nc3ncnc4sc(CC(F)(F)F)cc34)CC2)ccc2c1cc(C#N)n2CC12CC(NC(=O)c3cnc[nH]3)(C1)C2 [Compound 38] | 0.05 to 0.25
Cc1c(CN2CCC(Nc3ncnc4sc(CC(F)(F)F)cc34)CC2)ccc2c1cc(C#N)n2CC12CC(NC(=O)CCN)(C1)C2 [Compound 39] | < 0.05
Cc1c(CN2CCC(Nc3ncnc4sc(CC(F)(F)F)cc34)CC2)ccc2c1cc(C#N)n2CC12CC(NC(=O)CN(C)C)(C1)C2 [Compound 40] | < 0.05
Cc1c(CN2CCC(Nc3ncnc4sc(CC(F)(F)F)cc34)CC2)ccc2c1cc(C#N)n2CC12CC(NC(=O)C3CCCN3)(C1)C2 (stereo not drawn) [Compound 41] | < 0.05
Cc1c(CN2CCC(Nc3ncnc4sc(CC(F)(F)F)cc34)CC2)ccc2c1cc(C#N)n2CC12CC(NC(=O)CNC3CC3)(C1)C2 [Compound 42] | 0.05 to 0.25
COCC(=O)NC12CC(Cn3c(C#N)cc4c(C)c(CN5CCC(Nc6ncnc7sc(CC(F)(F)F)cc67)CC5)ccc43)(C1)C2 [Compound 43] | 0.05 to 0.25
CNCC(=O)NC12CC(Cn3c(C#N)cc4c(C)c(CN5CCC(Nc6ncnc7sc(CC(F)(F)F)cc67)CC5)ccc43)(C1)C2 [Compound 48] | < 0.05
Cc1c(CN2CCC(Nc3ncnc4sc(CC(F)(F)F)cc34)CC2)ccc2c1cc(C#N)n2CC12CC(N(C3CC3)C3CC3)(C1)C2 [Compound 49] | > 1
CCC(=O)NC12CC(Cn3c(C#N)cc4c(C)c(CN5CCC(Nc6nc(N)nc7sc(CC(F)(F)F)cc67)CC5)ccc43)(C1)C2 [Compound 54] | < 0.05
CCC(=O)NC12CC(Cn3c(C#N)cc4c(C)c(CN5CCC(Nc6nc(C)nc7sc(CC(F)(F)F)cc67)CC5)ccc43)(C1)C2 [Compound 55] | 0.05 to 0.25
Cc1c(CN2CCC(Nc3ncnc4sc(CC(F)(F)F)cc34)CC2)ccc2c1cc(C#N)n2CC12CC(NC(=O)CN3CCOCC3)(C1)C2 [Compound 56] | < 0.05
Cc1c(CN2CCC(Nc3ncnc4sc(CC(F)(F)F)cc34)CC2)ccc2c1cc(C#N)n2CC12CC(NC(=O)CN3CCCC3)(C1)C2 [Compound 57] | < 0.05
Cc1c(CN2CCC(Nc3ncnc4sc(CC(F)(F)F)cc34)CC2)ccc2c1cc(C#N)n2CC12CC(NC(=O)C3CCCN3C)(C1)C2 (stereo not drawn) [Compound 58] | < 0.05
Cc1c(CN2CCC(Nc3ncnc4sc(CC(F)(F)F)cc34)CC2)ccc2c1cc(C#N)n2CC12CC(NC(=O)C(C)(C)N)(C1)C2 [Compound 59] | < 0.05
Cc1c(CN2CCC(Nc3ncnc4sc(CC(F)(F)F)cc34)CC2)ccc2c1cc(C#N)n2CC12CC(NC(=O)C3(N)CC3)(C1)C2 [Compound 60] | 0.05 to 0.25
Cc1c(CN2CCC(Nc3ncnc4sc(CC(F)(F)F)cc34)CC2)ccc2c1cc(C#N)n2CC12CC(NC(=O)C(N)C(C)C)(C1)C2 (stereo not drawn) [Compound 62] | < 0.05
Cc1c(CN2CCC(Nc3ncnc4sc(CC(F)(F)F)cc34)CC2)ccc2c1cc(C#N)n2CC12CC(NC(=O)C(C)(C)O)(C1)C2 [Compound 63] | 0.05 to 0.25
Cc1c(CN2CCC(Nc3ncnc4sc(CC(F)(F)F)cc34)CC2)ccc2c1cc(C#N)n2CC12CC(NC(=O)C(C)N)(C1)C2 (stereo not drawn) [Compound 64] | < 0.05
Cc1c(CN2CCC(Nc3ncnc4sc(CC(F)(F)F)cc34)CC2)ccc2c1cc(C#N)n2CC12CC(NC(=O)C(N)c3ccccc3)(C1)C2 (stereo not drawn) [Compound 65] | < 0.05
Cc1c(CN2CCC(Nc3ncnc4sc(CC(F)(F)F)cc34)CC2)ccc2c1cc(C#N)n2CC12CC(NC(=O)C(C)O)(C1)C2 (stereo not drawn) [Compound 66] | 0.05 to 0.25
Cc1c(CN2CCC(Nc3ncnc4sc(CC(F)(F)F)cc34)CC2)ccc2c1cc(C#N)n2CC12CC(NC(=O)C(O)CO)(C1)C2 (stereo not drawn) [Compound 67] | 0.05 to 0.25
Cc1c(CN2CCC(Nc3ncnc4sc(CC(F)(F)F)cc34)CC2)ccc2c1cc(C#N)n2CC12CC(NC(=O)C3(O)CC3)(C1)C2 [Compound 68] | 0.05 to 0.25
Cc1c(CN2CCC(Nc3ncnc4sc(CC(F)(F)F)cc34)CC2)ccc2c1cc(C#N)n2CC12CC(NC(=O)C(N)C(F)(F)F)(C1)C2 (stereo not drawn) [Compound 69] | 0.25 to 1
CC[C@@H](NC)C(=O)NC12CC(Cn3c(C#N)cc4c(C)c(CN5CCC(Nc6ncnc7sc(CC(F)(F)F)cc67)CC5)ccc43)(C1)C2 [Compound 70] | < 0.05
CC[C@@H](N)C(=O)NC12CC(Cn3c(C#N)cc4c(C)c(CN5CCC(Nc6ncnc7sc(CC(F)(F)F)cc67)CC5)ccc43)(C1)C2 [Compound 71] | < 0.05
CCCCC(N)C(=O)NC12CC(Cn3c(C#N)cc4c(C)c(CN5CCC(Nc6ncnc7sc(CC(F)(F)F)cc67)CC5)ccc43)(C1)C2 (stereo not drawn) [Compound 72] | 0.05 to 0.25
CCCCC(NC)C(=O)NC12CC(Cn3c(C#N)cc4c(C)c(CN5CCC(Nc6ncnc7sc(CC(F)(F)F)cc67)CC5)ccc43)(C1)C2 (stereo not drawn) [Compound 73] | 0.05 to 0.25

From patent publication US11555041B2, “Bridged bicyclic inhibitors of menin-MLL and methods of use” (Kura Oncology, Inc., priority 2016, dated 2023)
